Measured values published in ChEMBL document CHEMBL3774317, “Design and synthesis of novel tamoxifen analogues that avoid CYP2D6 metabolism” (Eur J Med Chem, 2016).

What was measured:
Type in all cases: functional
MDA-MB-231 [1] = assay: Cytotoxicity against human MDA-MB-231 cells assessed as cell growth at 5 nM after 48 hrs by SRB assay; conditions: MDA-MB-231, 48 h, read-out: Activity
[2] = Cytotoxicity against human UO31 cells assessed as cell growth at 50 uM after 48 hrs by SRB assay; conditions: UO-31, 48 h, read-out: Activity
NCI-H522 [3] = assay: Cytotoxicity against human NCI-H522 cells assessed as cell growth at 5 uM after 48 hrs by SRB assay; conditions: NCI-H522, 48 h, read-out: Activity
[4] = Cytotoxicity against human HL-60(TB) cells assessed as cell growth at 0.5 uM after 48 hrs by SRB assay; conditions: HL-60, 48 h, read-out: Activity
[5] = Cytotoxicity against human RXF393 cells assessed as cell growth at 5 nM after 48 hrs by SRB assay; conditions: RXF 393, 48 h, read-out: Activity
[6] = Cytotoxicity against human SNB75 cells assessed as cell growth at 5 nM after 48 hrs by SRB assay; conditions: SNB-75, 48 h, read-out: Activity
[7] = Cytotoxicity against human OVCAR5 cells assessed as cell growth at 50 nM after 48 hrs by SRB assay; conditions: OVCAR-5, 48 h, read-out: Activity
NCI-H460 = assay: Cytotoxicity against human NCI-H460 cells assessed as cell growth at 50 uM after 48 hrs by SRB assay; conditions: NCI-H460, 48 h, read-out: Activity
NCI-H23 = assay: Cytotoxicity against human NCI-H23 cells assessed as cell growth at 0.5 uM after 48 hrs by SRB assay; conditions: NCI-H23, 48 h, read-out: Activity
[8] = Cytotoxicity against human OVCAR4 cells assessed as cell growth at 50 uM after 48 hrs by SRB assay; conditions: OVCAR-4, 48 h, read-out: Activity
[9] = Cytotoxicity against human SF539 cells assessed as cell growth at 5 uM after 48 hrs by SRB assay; conditions: SF-539, 48 h, read-out: Activity
[10] = Cytotoxicity against human SW620 cells assessed as cell growth at 50 uM after 48 hrs by SRB assay; conditions: SW-620, 48 h, read-out: Activity
[11] = Cytotoxicity against human Hs 578T cells assessed as cell growth at 5 uM after 48 hrs by SRB assay; conditions: read-out: Activity
CCRF-CEM [12] = assay: Cytotoxicity against human CCRF-CEM cells assessed as cell growth at 5 nM after 48 hrs by SRB assay; conditions: read-out: Activity
MDA-MB-231 [13] = assay: Cytotoxicity against human MDA-MB-231 cells assessed as cell growth at 5 uM after 48 hrs by SRB assay; conditions: MDA-MB-231, 48 h, read-out: Activity
[14] = Cytotoxicity against human COLO205 cells assessed as cell growth at 5 uM after 48 hrs by SRB assay; conditions: COLO 205, 48 h, read-out: Activity
MDA-MB-435 [15] = assay: Cytotoxicity against human MDA-MB-435 cells assessed as cell growth at 50 uM after 48 hrs by SRB assay; conditions: MDA-MB-435, 48 h, read-out: Activity
A498 = assay: Cytotoxicity against human A498 cells assessed as cell growth at 0.5 uM after 48 hrs by SRB assay; conditions: A498, 48 h, read-out: Activity
MCF7 = assay: Cytotoxicity against human MCF7 cells assessed as cell growth at 10^-7 M after 48 hrs by SRB assay; conditions: MCF7, 48 h, read-out: Activity
MDA-MB-435 [16] = assay: Cytotoxicity against human MDA-MB-435 cells assessed as cell growth at 10^-4 M after 48 hrs by SRB assay; conditions: MDA-MB-435, 48 h, read-out: Activity
[17] = Cytotoxicity against human SNB75 cells assessed as cell growth at 10^-4 M after 48 hrs by SRB assay; conditions: SNB-75, 48 h, read-out: Activity
SR = assay: Cytotoxicity against human SR cells assessed as cell growth at 10^-6 M after 48 hrs by SRB assay; conditions: read-out: Activity
SN12C = assay: Cytotoxicity against human SN12C cells assessed as cell growth at 10^-4 M after 48 hrs by SRB assay; conditions: read-out: Activity
[18] = Cytotoxicity against human HOP92 cells assessed as cell growth at 10^-6 M after 48 hrs by SRB assay; conditions: HOP-92, 48 h, read-out: Activity
NCI-H522 [19] = assay: Cytotoxicity against human NCI-H522 cells assessed as cell growth at 10^-6 M after 48 hrs by SRB assay; conditions: NCI-H522, 48 h, read-out: Activity
[20] = Cytotoxicity against human PC3 cells assessed as cell growth at 10^-5 M after 48 hrs by SRB assay; conditions: PC-3, 48 h, read-out: Activity
[21] = Cytotoxicity against human RXF393 cells assessed as cell growth at 10^-8 M after 48 hrs by SRB assay; conditions: RXF 393, 48 h, read-out: Activity
NCI-H322M = assay: Cytotoxicity against human NCI-H322M cells assessed as cell growth at 10^-6 M after 48 hrs by SRB assay; conditions: read-out: Activity
[22] = Cytotoxicity against human SF539 cells assessed as cell growth at 10^-7 M after 48 hrs by SRB assay; conditions: SF-539, 48 h, read-out: Activity
SK-MEL-5 = assay: Cytotoxicity against human SK-MEL-5 cells assessed as cell growth at 10^-7 M after 48 hrs by SRB assay; conditions: SK-MEL-5, 48 h, read-out: Activity
MDA-MB-231 [23] = assay: Cytotoxicity against human MDA-MB-231 cells assessed as cell growth at 10^-7 M after 48 hrs by SRB assay; conditions: MDA-MB-231, 48 h, read-out: Activity
[24] = Cytotoxicity against human UACC257 cells assessed as cell growth at 10^-6 M after 48 hrs by SRB assay; conditions: UACC-257, 48 h, read-out: Activity
CCRF-CEM [25] = assay: Cytotoxicity against human CCRF-CEM cells assessed as cell growth at 10^-8 M after 48 hrs by SRB assay; conditions: read-out: Activity
CCRF-CEM [26] = assay: Cytotoxicity against human CCRF-CEM cells assessed as cell growth at 10^-6 M after 48 hrs by SRB assay; conditions: read-out: Activity
[27] = Cytotoxicity against human OVCAR8 cells assessed as cell growth at 10^-7 M after 48 hrs by SRB assay; conditions: OVCAR-8, 48 h, read-out: Activity
[28] = Cytotoxicity against human TK10 cells assessed as cell growth at 10^-7 M after 48 hrs by SRB assay; conditions: TK-10, 48 h, read-out: Activity
[29] = Cytotoxicity against human SF295 cells assessed as cell growth at 10^-7 M after 48 hrs by SRB assay; conditions: SF-295, 48 h, read-out: Activity
[30] = Cytotoxicity against human COLO205 cells assessed as cell growth at 10^-6 M after 48 hrs by SRB assay; conditions: COLO 205, 48 h, read-out: Activity
[31] = Cytotoxicity against human SNB75 cells assessed as cell growth at 10^-6 M after 48 hrs by SRB assay; conditions: SNB-75, 48 h, read-out: Activity
[32] = Cytotoxicity against human SNB75 cells assessed as cell growth at 10^-8 M after 48 hrs by SRB assay; conditions: SNB-75, 48 h, read-out: Activity
[33] = Cytotoxicity against human SW620 cells assessed as cell growth at 10^-7 M after 48 hrs by SRB assay; conditions: SW-620, 48 h, read-out: Activity
T47D = assay: Cytotoxicity against human T47D cells assessed as cell growth at 10^-8 M after 48 hrs by SRB assay; conditions: read-out: Activity

Question: Which results are given for `CCCCCCCCCC(=O)Oc1ccc(/C(=C(/C)c2ccccc2)c2ccc(OCCN3CCCC3)cc2)cc1`?
Answer: growth at 0.005 µM (MDA-MB-231 [1]): 99%; growth at 50 µM [2]: -85%; growth at 5 µM (NCI-H522 [3]): 96%; growth at 0.5 µM [4]: 75%; growth at 0.005 µM [5]: 101%; growth at 0.005 µM [6]: 88%; growth at 0.05 µM [7]: 94%; growth at 50 µM (NCI-H460): -91%; growth at 0.5 µM (NCI-H23): 71%; growth at 50 µM [8]: -87%; growth at 5 µM [9]: 92%; growth at 50 µM [10]: -97%; growth at 5 µM [11]: 77%; growth at 0.005 µM (CCRF-CEM [12]): 95%; growth at 5 µM (MDA-MB-231 [13]): 102%; growth at 5 µM [14]: 79%; growth at 50 µM (MDA-MB-435 [15]): -100%; growth at 0.5 µM (A498): 49%

Question: What does the source list for `C/C(=C(/c1ccc(O)cc1)c1ccc(OCCN2CCCC2)cc1)c1ccccc1`?
Answer: growth at 0.1 µM (MCF7): 44%; growth at 100 µM (MDA-MB-435 [16]): -100%; growth at 100 µM [17]: -94%; growth at 1 µM (SR): 80%; growth at 100 µM (SN12C): -69%; growth at 1 µM [18]: 84%; growth at 1 µM (NCI-H522 [19]): 92%; growth at 10 µM [20]: 19%; growth at 0.01 µM [21]: 96%; growth at 1 µM (NCI-H322M): 90%; growth at 0.1 µM [22]: 101%; growth at 0.1 µM (SK-MEL-5): 102%; growth at 0.1 µM (MDA-MB-231 [23]): 116%; growth at 1 µM [24]: 104%; growth at 0.01 µM (CCRF-CEM [25]): 110%; growth at 1 µM (CCRF-CEM [26]): 102%; growth at 0.1 µM [27]: 105%; growth at 0.1 µM [28]: 94%; growth at 0.1 µM [29]: 94%; growth at 1 µM [30]: 88%; growth at 1 µM [31]: 76%; growth at 0.01 µM [32]: 72%; growth at 0.1 µM [33]: 103%; growth at 0.01 µM (T47D): 62%
